These results are taken from publication PMC12136037, “Type II kinase inhibitors that target Parkinson’s disease–associated LRRK2” (Science Advances, 2025).

Molecules are shown by their SMILES.

Common to all, as to test: DSF 100 kinase selectivity screen;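 also: compound tested at 20 µM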
What all share (assay type): binding

In test [1] the target is T1, ~100 representative kinases (Homo sapiens, UniProt O95747).
T1 construct: Recombinant protein kinase domains with a concentration of 2 μM
The settings on record: protein OSR1; average of three replicates. The gist of the method:
(§1)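 Each kinase domain, at 2 μM, is mixed with 20 μM test compound and SYPRO Orange in Hepes (20 mM, pH 7.5) with 500 mM NaCl. Temperature is then raised at 3°C/min and fluorescence-monitored unfolding yields the melting temperature change, ΔTm in degrees Celsius.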

The target of test [2] is T2, ~100 representative kinases (Homo sapiens, UniProt O96013).
T2 construct: Recombinant protein kinase domains with a concentration of 2 μM
T2 sequence (O96013 whole entry, the tested form may be a part): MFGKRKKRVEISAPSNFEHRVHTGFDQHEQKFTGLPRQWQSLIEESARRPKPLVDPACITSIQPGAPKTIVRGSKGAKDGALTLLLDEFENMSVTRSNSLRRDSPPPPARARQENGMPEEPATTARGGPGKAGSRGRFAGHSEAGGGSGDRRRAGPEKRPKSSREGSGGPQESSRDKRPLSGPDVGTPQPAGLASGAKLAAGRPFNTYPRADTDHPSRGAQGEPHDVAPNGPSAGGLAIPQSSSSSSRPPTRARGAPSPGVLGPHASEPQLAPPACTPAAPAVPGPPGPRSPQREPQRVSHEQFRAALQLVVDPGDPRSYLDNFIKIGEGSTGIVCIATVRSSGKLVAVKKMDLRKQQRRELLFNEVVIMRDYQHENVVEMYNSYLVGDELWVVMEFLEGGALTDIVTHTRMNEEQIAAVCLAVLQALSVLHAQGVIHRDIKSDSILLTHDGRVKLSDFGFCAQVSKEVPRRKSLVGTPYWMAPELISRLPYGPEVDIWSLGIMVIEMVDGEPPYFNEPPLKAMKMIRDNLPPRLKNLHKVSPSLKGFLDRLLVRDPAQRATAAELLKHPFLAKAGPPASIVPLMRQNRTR
The settings on record: protein PAK4; average of three replicates. The gist of the method: as §1

Test [3] has as its target T3, ~100 representative kinases (Homo sapiens, UniProt P28482).
T3 construct: Recombinant protein kinase domains with a concentration of 2 μM
The settings on record: protein MAPK1; average of three replicates. The gist of the method:
as §1

Test [4] deals with T4, ~100 representative kinases (Homo sapiens, UniProt P29317).
T4 construct: Recombinant protein kinase domains with a concentration of 2 μM
T4 sequence (P29317 24-976): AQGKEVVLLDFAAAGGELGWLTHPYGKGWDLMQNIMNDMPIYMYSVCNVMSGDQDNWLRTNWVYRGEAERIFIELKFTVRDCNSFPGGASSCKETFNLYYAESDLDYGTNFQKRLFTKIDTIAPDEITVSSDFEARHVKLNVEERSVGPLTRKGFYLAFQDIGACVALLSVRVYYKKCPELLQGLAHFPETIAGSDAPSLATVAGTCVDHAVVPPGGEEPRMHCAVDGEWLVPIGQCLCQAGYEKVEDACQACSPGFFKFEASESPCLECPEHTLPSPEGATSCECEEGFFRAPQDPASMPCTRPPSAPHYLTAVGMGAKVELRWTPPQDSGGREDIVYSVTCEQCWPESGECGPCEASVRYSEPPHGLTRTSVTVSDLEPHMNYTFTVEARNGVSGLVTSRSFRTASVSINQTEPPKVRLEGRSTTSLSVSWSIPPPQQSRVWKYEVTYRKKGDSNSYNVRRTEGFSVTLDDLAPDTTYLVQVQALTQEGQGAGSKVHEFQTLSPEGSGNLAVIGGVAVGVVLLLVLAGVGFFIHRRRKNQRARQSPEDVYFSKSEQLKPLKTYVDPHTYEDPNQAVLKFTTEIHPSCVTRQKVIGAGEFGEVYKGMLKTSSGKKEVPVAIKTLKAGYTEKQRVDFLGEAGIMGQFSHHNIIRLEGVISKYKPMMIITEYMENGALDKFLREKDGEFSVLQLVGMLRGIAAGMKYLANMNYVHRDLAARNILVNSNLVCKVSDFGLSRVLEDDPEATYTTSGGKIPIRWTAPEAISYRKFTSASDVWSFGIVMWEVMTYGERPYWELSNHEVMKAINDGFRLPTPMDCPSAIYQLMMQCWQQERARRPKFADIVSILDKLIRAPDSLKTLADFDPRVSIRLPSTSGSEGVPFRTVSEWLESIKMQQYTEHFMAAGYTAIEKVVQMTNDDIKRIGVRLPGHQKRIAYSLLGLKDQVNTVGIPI
The settings on record: Protein EPHA2; average of three replicates. Put shortly: as §1

Test [5] deals with T5, ~100 representative kinases (Homo sapiens, UniProt Q09013).
T5 construct: Recombinant protein kinase domains with a concentration of 2 μM
T5 sequence (Q09013 1-629): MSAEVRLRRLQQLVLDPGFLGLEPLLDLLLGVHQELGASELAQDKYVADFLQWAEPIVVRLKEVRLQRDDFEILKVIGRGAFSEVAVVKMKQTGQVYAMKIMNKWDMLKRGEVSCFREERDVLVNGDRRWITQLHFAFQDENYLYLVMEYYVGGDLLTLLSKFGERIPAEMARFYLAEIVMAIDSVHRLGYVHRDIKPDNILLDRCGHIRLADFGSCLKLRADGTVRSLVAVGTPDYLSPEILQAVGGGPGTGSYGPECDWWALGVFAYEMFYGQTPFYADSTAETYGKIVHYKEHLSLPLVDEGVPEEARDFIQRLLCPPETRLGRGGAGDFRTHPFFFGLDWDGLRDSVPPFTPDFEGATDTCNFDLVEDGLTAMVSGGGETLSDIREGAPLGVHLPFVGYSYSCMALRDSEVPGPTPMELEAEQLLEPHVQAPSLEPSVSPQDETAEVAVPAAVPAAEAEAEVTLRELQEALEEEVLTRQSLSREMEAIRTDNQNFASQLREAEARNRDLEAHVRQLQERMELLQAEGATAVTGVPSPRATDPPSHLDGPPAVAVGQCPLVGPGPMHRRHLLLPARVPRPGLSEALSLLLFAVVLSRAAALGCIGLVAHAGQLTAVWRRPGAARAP
To be noted: Protein DMPK1; average of three replicates. Put shortly: as §1

Test [6] concerns the target T6, ~100 representative kinases (Homo sapiens, UniProt Q16566).
T6 construct: Recombinant protein kinase domains with a concentration of 2 μM
T6 sequence (Q16566 1-473): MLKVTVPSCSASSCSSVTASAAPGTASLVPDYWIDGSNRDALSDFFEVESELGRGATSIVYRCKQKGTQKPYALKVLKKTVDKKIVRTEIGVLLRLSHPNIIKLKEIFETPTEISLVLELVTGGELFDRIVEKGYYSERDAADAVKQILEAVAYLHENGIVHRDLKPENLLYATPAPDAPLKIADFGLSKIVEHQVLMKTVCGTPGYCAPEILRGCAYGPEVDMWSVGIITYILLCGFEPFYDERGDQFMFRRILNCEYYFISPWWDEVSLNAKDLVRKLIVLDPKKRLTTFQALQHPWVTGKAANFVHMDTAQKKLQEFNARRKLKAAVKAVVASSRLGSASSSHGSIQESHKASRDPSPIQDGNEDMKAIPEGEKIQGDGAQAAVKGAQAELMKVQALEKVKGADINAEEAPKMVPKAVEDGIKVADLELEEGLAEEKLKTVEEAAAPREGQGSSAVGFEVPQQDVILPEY
To be noted: Protein CAMK4; average of three replicates. The gist of the method: as §1

Test [7] addresses T7, ~100 representative kinases (Homo sapiens, UniProt Q96L34).
T7 construct: Recombinant protein kinase domains with a concentration of 2 μM
T7 sequence (Q96L34 1-752): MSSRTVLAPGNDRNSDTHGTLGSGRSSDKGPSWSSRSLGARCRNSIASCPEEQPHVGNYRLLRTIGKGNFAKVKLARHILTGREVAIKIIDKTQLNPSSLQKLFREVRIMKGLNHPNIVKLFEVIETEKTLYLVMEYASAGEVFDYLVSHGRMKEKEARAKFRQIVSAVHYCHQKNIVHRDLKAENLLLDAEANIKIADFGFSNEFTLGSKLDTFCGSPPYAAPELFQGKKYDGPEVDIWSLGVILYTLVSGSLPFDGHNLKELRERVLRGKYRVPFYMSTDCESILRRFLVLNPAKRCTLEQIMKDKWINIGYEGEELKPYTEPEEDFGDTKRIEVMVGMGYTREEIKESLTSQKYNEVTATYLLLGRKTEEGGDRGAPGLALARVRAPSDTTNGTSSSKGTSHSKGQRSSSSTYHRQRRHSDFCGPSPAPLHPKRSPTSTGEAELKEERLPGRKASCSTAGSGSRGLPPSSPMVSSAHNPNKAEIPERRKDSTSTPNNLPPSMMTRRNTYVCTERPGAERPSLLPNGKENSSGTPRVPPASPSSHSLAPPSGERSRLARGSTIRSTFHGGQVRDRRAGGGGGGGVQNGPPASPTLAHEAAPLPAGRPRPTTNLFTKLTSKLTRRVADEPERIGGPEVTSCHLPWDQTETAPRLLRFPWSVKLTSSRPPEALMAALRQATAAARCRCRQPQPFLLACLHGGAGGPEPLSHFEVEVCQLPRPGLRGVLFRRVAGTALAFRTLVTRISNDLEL
The settings on record: protein MARK4; average of three replicates. The gist of the method:
as §1

Test [8] has as its target T8, ~100 representative kinases (Homo sapiens, UniProt Q9UPE1).
T8 construct: Recombinant protein kinase domains with a concentration of 2 μM
To be noted: Protein SRPK3; DSF; average of three replicates. Put shortly: as §1

T8 sequence (Q9UPE1 whole entry, the tested form may be a part): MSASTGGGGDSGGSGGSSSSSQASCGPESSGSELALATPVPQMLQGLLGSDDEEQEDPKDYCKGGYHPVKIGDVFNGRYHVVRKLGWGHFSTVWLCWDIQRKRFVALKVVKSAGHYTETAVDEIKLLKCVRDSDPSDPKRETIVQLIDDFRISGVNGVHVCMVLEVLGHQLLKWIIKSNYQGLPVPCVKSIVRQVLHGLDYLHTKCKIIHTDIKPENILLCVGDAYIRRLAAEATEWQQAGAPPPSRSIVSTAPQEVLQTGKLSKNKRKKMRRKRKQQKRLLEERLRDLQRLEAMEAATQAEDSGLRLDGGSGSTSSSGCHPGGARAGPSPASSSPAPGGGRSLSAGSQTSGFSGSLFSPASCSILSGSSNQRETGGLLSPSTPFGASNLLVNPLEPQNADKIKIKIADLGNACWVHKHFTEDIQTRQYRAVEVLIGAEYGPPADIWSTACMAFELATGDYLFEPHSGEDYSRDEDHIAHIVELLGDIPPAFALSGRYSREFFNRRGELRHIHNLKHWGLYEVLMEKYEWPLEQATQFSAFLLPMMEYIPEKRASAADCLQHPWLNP
T3 sequence (P28482 whole entry, the tested form may be a part): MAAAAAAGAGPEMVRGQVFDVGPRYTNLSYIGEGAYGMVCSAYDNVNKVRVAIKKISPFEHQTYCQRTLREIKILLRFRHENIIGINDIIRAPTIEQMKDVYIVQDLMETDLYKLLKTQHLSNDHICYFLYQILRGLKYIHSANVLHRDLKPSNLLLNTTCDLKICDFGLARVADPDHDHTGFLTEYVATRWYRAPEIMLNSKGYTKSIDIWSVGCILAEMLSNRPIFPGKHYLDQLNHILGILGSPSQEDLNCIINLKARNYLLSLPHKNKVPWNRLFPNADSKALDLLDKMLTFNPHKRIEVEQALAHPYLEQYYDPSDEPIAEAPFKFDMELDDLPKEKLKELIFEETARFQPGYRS
T1 sequence (O95747 whole entry, the tested form may be a part): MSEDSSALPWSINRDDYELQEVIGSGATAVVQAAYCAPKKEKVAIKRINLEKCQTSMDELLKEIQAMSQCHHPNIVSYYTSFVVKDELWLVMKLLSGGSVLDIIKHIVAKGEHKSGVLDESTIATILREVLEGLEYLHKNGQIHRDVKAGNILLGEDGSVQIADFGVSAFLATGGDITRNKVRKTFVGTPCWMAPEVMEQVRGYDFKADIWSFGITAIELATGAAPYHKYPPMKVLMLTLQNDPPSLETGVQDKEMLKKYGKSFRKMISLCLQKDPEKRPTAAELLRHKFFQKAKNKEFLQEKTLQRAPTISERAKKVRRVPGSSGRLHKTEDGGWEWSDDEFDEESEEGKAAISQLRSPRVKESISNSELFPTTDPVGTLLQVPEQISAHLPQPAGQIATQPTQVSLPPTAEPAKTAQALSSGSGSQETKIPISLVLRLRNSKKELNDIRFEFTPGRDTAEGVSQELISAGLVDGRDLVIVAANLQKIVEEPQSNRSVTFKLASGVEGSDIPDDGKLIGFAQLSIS

As to `Cc1ccc(C(=O)Nc2ccc(CN3CCN(C)CC3)c(C(F)(F)F)c2)cc1C#Cc1c[nH]c2ncnc(N3CCOCC3)c12` [Compound 1], the dTm in test [1] is listed as 1.78 K; in test [2] it was 0.31 K; in test [3], 0.68 K; in test [4], 3.44 K; in test [5], 0.98 K; in test [6], 1.39 K. The compound also had a dTm in test [7] of 1.18 K.

In the case of `O=C(Nc1ccc(F)cc1)C1(C(=O)Nc2cccc(-c3c[nH]c4ncnc(N5CCOCC5)c34)c2)CC1` [Compound 2], the dTm is recorded as 1.55 K in test [1]; 0.12 K in test [2]; -0.20 K in test [3]; 6.37 K in test [4]; -0.63 K in test [5]; 2.18 K in test [6]. Besides, the dTm in test [7] is 3.91 K; in test [8], 6.73 K.

Regarding `O=C(Nc1cccc(-c2c[nH]c3ncnc(N4CCOCC4)c23)c1)c1cccn(-c2ccc(F)cc2)c1=O` [Compound 4], the dTm in test [1] is given as 1.98 K; in test [2], -0.78 K; in test [3], -0.49 K; in test [4], 6.09 K; in test [5], -0.68 K; in test [6], 1.59 K. The dTm in test [7] stood at 3.88 K; in test [8] it was 5.16 K.

Regarding `Cc1cc(NC(=O)C2(C(=O)Nc3ccc(F)cc3)CC2)cc(-c2c[nH]c3ncnc(N4CCOCC4)c23)c1` [Compound 6], the dTm in test [1] is -0.63 K; in test [2], 0.99 K; in test [3], 0.01 K; in test [4], 3.21 K; in test [5], 1.12 K; in test [6] it was 1.41 K. The dTm in test [7] is on record as -6.12 K; in test [8] it was 4.54 K.

As for `O=C(Nc1cccc(-c2c[nH]c3ncnc(N4CCOCC4)c23)c1)C1(C(=O)Nc2cccc3c2CCC3)CC1` [Compound 11], the dTm in test [1] is on record as 0.42 K; in test [2], 0.55 K; in test [3], 1.31 K; in test [4], 1.56 K; in test [5], -0.08 K; in test [6], 2.09 K. Further, the dTm in test [7] came out at 0.00 K; in test [8], 3.94 K.

Regarding `O=C(Nc1ccccc1)C1(C(=O)Nc2cccc(-c3c[nH]c4ncnc(N5CCOCC5)c34)c2)CC1` [Compound 12], the dTm was 1.28 K in test [1]; -0.15 K in test [2]; 0.22 K in test [3]; 5.20 K in test [4]; -0.21 K in test [5]; 1.57 K in test [6]. Also, the dTm in test [7] was determined as 3.45 K; in test [8], 4.78 K.

Regarding `O=C(Nc1ccc(Cl)cc1)C1(C(=O)Nc2cccc(-c3c[nH]c4ncnc(N5CCOCC5)c34)c2)CC1` [Compound 13], the dTm in test [1] is given as 2.33 K; in test [2], 1.17 K; in test [3], 0.06 K; in test [4], 8.00 K; in test [5] it was -0.32 K; in test [6], 3.78 K. The dTm in test [7] was 5.82 K; in test [8], 8.47 K.

Turning to `Cc1ccc(NC(=O)C2(C(=O)Nc3cccc(-c4c[nH]c5ncnc(N6CCOCC6)c45)c3)CC2)cc1` [Compound 14], the dTm is on record as 1.54 K in test [1]; -0.55 K in test [2]; -0.09 K in test [3]; 7.05 K in test [4]; -0.76 K in test [5]; 1.05 K in test [6]. The dTm turned out to be 3.97 K in test [7] and 5.15 K in test [8].

As to `COc1cc2c(Oc3ccc(NC(=O)C4(C(=O)Nc5ccc(F)cc5)CC4)cc3F)ccnc2cc1OCCCN1CCOCC1` [Foretinib, reference compound], the dTm in test [1] is on record as -0.48 K; in test [2], 0.34 K; in test [3], 0.0844 K; in test [5], -0.67 K; in test [7], 1.64 K; in test [8] it was 7.41 K.

In the case of `CCNc1nc(Nc2cc(F)c(C(=O)N3CCOCC3)cc2OC)ncc1C(F)(F)F` [GNE-7915], the dTm in test [1] amounted to 0.21 K; in test [2], 1.08 K; in test [3], 0.38 K; in test [4], 0.40 K; in test [5], 0.77 K; in test [6], 0.15 K. Moreover, in test [7], the dTm is -0.13 K.

As to `Cc1ccc(C(=O)Nc2ccc(CN3CCN(C)CC3)c(C(F)(F)F)c2)cc1C#Cc1cnc2[nH]ncc2c1` [GZD-824, reference compound], the dTm in test [1] is listed as 0.93 K; in test [2], 3.27 K; in test [3], 0.87 K; in test [4] it was 17.23 K; in test [5] it was 3.13 K; in test [6] it was 0.32 K. Also, the dTm in test [7] is reported as 1.02 K.

For `C[C@@H]1CN(c2cc(-c3n[nH]c4ccc(OC5(C)CC5)cc34)ncn2)C[C@H](C)O1` [MLi2], the dTm in test [1] was 0.07 K; in test [2], -0.10 K; in test [3], 0.49 K; in test [4], 0.27 K; in test [5], 0.14 K; in test [6], 1.22 K. Besides, the dTm in test [7] was -0.55 K.

On to `Cn1cc(-c2c[nH]c3ncnc(N4CCOCC4)c23)cc1C#N` [PFE-360], for which the dTm in test [1] is given as -0.14 K; in test [2], 4.09 K; in test [3], 0.55 K; in test [4], 0.68 K; in test [5] it was 1.66 K; in test [6], 0.56 K. Moreover, the dTm in test [7] was 3.49 K.

On to `Cc1ccc(C(=O)Nc2ccc(CN3CCN(C)CC3)c(C(F)(F)F)c2)cc1C#Cc1cnc2cccnn12` [Ponatinib, reference compound], for which the values for the dTm in test [4], in test [6] and in test [7] were 16.48 K, 1.32 K and -0.48 K, respectively.

As for `CN[C@@H]1C[C@H]2O[C@@](C)([C@@H]1OC)n1c3ccccc3c3c4c(c5c6ccccc6n2c5c31)C(=O)NC4` [Staurosporine], the dTm in test [1] amounted to 8.41 K; in test [6], 8.45 K; in test [7], 15.90 K; in test [8], 4.52 K.
